Data as given in patent US20050107386A1, “Methods of treating diseases and disorders by targeting multiple kinases” (priority 2003, published 2005).

Assays:
Settings in all cases: 3 μM; percent of control kinase activity
c-RAF(h) = c-RAF(h) kinase assay; format: biochemical, human
Protocol: (§1) Six compounds (presumptive single agents) were tested against a panel of 50 kinases. The results are presented in Table 2; numbers for each kinase indicate the percent of control kinase activity in the presence of a 3μM concentration of the indicated agent.
(§2) Agents that target two or more different kinases are useful in the methods of the invention as described elsewhere herein. Such compounds may be identified, and their effect on certain kinases may be identified, using the assays briefly described below in Examples 4-83. Each of these assays was carried out as described in Davies et al., Biochem. J., 351:95-105 (2000). All assays were carried out at 10 μM ATP unless otherwise noted.
(§3) In a final reaction volume of 25 μl, c-RAF (h) (5-10 mU) is incubated with 25 mM Tris pH 7.5, 0.02 mM EGTA, 0.66 mg/ml myelin basic protein, 10 mM MgAcetate and [γ-^33P-ATP] (specific activity approx. 500 cpm/pmol, concentration as required). The reaction is initiated by the addition of Mg^2+ [γ-^33P-ATP]. After incubation for 40 minutes at room temperature, the reaction is stopped by the addition of 5 μl of a 3% phosphoric acid solution. 10 μl of the reaction is then spotted onto a P30 filtermat and washed three times for 5 minutes in 75 mM phosphoric acid and once in methanol prior to drying and scintillation counting.

Lck(h) = Lck(h) (Homo sapiens, UniProt P06239); experiment: Lck(h) kinase assay; format: biochemical
Chain of Lck(h) (P06239 whole entry): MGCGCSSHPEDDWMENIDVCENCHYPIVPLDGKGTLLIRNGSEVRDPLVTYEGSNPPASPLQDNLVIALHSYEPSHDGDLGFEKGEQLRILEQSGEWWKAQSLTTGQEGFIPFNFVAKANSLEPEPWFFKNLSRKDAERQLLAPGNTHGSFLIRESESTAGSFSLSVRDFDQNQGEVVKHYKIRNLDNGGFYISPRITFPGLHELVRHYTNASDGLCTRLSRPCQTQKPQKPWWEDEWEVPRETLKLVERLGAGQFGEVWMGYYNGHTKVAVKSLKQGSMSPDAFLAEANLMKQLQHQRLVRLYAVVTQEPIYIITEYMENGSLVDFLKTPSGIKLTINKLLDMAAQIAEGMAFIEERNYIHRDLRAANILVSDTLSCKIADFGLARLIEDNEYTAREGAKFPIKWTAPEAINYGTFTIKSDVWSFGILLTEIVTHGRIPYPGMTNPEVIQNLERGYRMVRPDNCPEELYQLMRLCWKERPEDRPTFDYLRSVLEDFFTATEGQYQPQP
Protocol: as §1, §2
as §3, with “μl, Lck(h)” for “μl, c-RAF (h)”, “with 50” for “with 25”, “7.5, 0.1” for “7.5, 0.02”, “EGTA, 0.1 mM NaVanadate, 250 μM […] (Cdc2 peptide; SEQ ID NO:7),” for “EGTA, 0.66 mg/ml myelin basic protein,”

Syk(h) = Syk(h) (Homo sapiens, UniProt P43405); experiment: Syk(h) kinase assay; format: biochemical
Protocol: as §1, §2
as §3, with “μl, Syk” for “μl, c-RAF”, “with 50” for “with 25”, “7.5, 0.1” for “7.5, 0.02”, “EGTA, 0.1 mM NaVanadate, 0.1% β-mercaptoethanol, 0.1” for “EGTA, 0.66”, “mg/ml poly(Glu, Tyr) 4:1,” for “mg/ml myelin basic protein,”, “a Filtermat A” for “a P30 filtermat”

MAPKAP-K2(h) = MAPKAP-K2(h) (Homo sapiens, UniProt P49137); experiment: MAPKAP-K2(h) kinase assay; format: biochemical
Chain of MAPKAP-K2(h) (P49137 whole entry): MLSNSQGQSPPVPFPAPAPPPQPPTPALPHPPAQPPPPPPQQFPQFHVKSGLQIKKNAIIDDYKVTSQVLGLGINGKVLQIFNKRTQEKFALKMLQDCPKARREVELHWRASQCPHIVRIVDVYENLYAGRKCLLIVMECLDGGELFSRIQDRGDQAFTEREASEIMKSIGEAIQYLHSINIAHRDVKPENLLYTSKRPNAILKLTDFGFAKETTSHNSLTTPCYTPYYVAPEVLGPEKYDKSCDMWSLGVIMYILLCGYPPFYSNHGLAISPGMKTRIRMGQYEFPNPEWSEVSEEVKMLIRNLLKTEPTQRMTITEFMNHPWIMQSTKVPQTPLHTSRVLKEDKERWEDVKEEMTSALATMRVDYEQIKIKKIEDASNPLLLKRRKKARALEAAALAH
Protocol: as §1, §2
as §3, with “μl, MAPKAP-K2” for “μl, c-RAF”, “with 50” for “with 25”, “mM Na-β-glycerophosphate” for “mM Tris”, “7.5, 0.1” for “7.5, 0.02”, “EGTA, 30 μM […] (SEQ ID NO:11),” for “EGTA, 0.66 mg/ml myelin basic protein,”, “[γ-^33P-ATP] (Specific” for “[γ-^33P-ATP] (specific”

MSK1(h) = MSK1(h) (Homo sapiens, UniProt O75582); experiment: MSK1(h) kinase assay; format: biochemical
Chain of MSK1(h) (O75582 whole entry): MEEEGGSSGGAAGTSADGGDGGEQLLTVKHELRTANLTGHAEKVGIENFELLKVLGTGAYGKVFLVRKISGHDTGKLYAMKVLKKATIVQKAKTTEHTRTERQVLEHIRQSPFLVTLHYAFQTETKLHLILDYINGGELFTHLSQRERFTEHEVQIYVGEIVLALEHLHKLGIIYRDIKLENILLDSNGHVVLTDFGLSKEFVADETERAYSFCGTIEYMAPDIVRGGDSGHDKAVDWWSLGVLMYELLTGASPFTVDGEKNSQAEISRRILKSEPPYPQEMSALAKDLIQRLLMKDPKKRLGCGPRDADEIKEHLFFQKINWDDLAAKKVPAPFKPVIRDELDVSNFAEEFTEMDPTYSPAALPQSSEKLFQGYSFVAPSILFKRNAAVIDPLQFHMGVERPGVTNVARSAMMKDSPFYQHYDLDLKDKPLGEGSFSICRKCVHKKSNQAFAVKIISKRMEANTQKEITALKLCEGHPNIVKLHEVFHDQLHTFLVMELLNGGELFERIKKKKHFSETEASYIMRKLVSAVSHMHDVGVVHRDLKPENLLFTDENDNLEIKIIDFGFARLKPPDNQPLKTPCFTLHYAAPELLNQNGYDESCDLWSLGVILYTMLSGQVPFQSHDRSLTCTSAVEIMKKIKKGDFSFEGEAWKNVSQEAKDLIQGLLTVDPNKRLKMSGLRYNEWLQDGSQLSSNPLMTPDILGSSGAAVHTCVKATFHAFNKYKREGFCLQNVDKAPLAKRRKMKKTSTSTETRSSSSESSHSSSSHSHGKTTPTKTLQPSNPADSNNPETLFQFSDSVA
Protocol: as §1, §2
as §3, with “μl, MSK1” for “μl, c-RAF”, “with 8” for “with 25”, “mM MOPS” for “mM Tris”, “pH 7.0, 0.2” for “pH 7.5, 0.02”, “mM EDTA, 30 μM […] (SEQ ID NO:2),” for “mM EGTA, 0.66 mg/ml myelin basic protein,”

PDGFRα(h) = PDGFRα(h) (Homo sapiens, UniProt P16234); experiment: PDGFRα(h) kinase assay; format: biochemical
Chain of PDGFRα(h) (P16234 24-1089): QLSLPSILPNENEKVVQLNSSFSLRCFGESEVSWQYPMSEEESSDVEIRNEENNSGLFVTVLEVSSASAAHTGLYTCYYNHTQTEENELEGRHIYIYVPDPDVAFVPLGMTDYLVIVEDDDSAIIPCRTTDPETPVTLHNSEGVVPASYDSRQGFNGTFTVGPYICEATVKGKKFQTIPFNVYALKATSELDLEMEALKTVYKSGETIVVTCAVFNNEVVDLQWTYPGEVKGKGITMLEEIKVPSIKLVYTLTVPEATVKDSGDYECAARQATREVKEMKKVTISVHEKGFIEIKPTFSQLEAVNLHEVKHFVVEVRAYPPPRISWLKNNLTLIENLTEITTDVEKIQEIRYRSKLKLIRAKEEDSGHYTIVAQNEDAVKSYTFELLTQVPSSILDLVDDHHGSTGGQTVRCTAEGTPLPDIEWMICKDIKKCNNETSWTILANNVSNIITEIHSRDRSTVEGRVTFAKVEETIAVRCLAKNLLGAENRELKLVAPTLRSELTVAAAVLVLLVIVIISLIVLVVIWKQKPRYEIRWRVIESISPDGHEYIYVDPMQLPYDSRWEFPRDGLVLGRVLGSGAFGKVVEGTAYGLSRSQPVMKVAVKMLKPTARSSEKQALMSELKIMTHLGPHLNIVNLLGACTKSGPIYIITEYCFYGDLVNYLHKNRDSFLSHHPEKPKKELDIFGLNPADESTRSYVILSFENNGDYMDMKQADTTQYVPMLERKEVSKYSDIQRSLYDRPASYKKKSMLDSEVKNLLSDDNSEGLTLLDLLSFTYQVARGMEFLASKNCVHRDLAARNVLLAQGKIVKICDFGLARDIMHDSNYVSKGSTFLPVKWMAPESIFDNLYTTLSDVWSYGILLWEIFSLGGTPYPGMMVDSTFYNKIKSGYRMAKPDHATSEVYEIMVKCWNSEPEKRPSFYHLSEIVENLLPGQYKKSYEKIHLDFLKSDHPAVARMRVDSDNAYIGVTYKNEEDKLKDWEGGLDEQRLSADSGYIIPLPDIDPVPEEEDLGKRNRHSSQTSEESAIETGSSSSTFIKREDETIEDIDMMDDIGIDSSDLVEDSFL
Protocol: as §1, §2
(§4) In a final reaction volume of 25 μl, PDGFRα (h) (5-10 mU) is incubated with 8 mM MOPS pH 7.0, 0.2 mM EDTA, 0.1 mg/ml poly(Glu, Tyr) 4:1, 10 mM MnCl2, 10 mM MgAcetate and [γ-^33P-ATP] (specific activity approx. 500 cpm/pmol, concentration as required). The reaction is initiated by the addition of Mg^2+ [γ-^33P-ATP]. After incubation for 40 minutes at room temperature, the reaction is stopped by the addition of 5 μl of a 3% phosphoric acid solution. 10 μl of the reaction is then spotted onto a Filtermat A and washed three times for 5 minutes in 75 mM phosphoric acid and once in methanol prior to drying and scintillation counting.

Rsk2(h) = Rsk2(h) (Homo sapiens, UniProt P51812); experiment: Rsk2(h) kinase assay; format: biochemical
Chain of Rsk2(h) (P51812 whole entry): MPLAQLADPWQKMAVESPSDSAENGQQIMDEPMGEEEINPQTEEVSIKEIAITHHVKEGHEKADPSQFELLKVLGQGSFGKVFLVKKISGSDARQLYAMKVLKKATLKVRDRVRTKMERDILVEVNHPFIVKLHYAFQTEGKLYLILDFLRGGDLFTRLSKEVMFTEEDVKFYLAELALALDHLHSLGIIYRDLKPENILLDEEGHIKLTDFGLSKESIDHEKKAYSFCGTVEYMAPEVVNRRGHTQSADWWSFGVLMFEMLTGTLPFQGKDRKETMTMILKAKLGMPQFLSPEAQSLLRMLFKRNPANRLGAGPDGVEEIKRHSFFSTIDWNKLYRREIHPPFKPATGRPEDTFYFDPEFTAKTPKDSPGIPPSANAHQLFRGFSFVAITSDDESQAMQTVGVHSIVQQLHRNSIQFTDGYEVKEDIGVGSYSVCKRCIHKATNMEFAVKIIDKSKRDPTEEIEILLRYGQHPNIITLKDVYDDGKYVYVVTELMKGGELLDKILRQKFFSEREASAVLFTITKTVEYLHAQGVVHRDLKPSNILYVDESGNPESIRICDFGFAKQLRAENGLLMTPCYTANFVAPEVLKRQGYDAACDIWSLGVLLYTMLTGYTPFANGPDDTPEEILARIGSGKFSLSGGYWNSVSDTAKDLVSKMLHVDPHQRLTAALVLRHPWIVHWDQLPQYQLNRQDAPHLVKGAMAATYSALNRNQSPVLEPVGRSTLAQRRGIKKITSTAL
Protocol: as §1, §2
as §4, with “Rsk2(h)” for “PDGFRα (h)”, “30 μM […] (SEQ ID NO:11),” for “0.1 mg/ml poly(Glu, Tyr) 4:1, 10 mM MnCl2,”, “P30 filtermat” for “Filtermat A”

SMILES	Inhibitory activity (% of control), c-RAF(h) (c-RAF(h))	Inhibitory activity (% of control), Lck(h) (Lck(h))	Inhibitory activity (% of control), Syk(h) (Syk(h))	Inhibitory activity (% of control), MAPKAP-K2(h) (MAPKAP-K2(h))	Inhibitory activity (% of control), MSK1(h) (MSK1(h))	Inhibitory activity (% of control), PDGFRα(h) (PDGFRα(h))	Inhibitory activity (% of control), Rsk2(h) (Rsk2(h))
COc1ccc2cc(-c3n[nH]c4ccc(-c5n[nH]c(CN6CCOCC6)n5)cc34)ccc2c1 [CC001, 3-(6-Methoxynaphthalen-2-yl)-5-(5-Morpholin-4-Ylmethyl-1H-[1,2,4]Triazol-3-yl)-1H-Indazole]	99 % of control	27 % of control	26 % of control	97 % of control	62 % of control	72 % of control	6 % of control
CC(C)Cc1nc(-c2ccc3[nH]nc(-c4ccc5cc(OCCN6CCCC6)ccc5c4)c3c2)n[nH]1 [CC002, 5-(5-Isobutyl-1H-[1,2,4]Triazol-3-yl)-3-[6-(2-Pyrrolidin-1-yl-Ethoxy)-Naphthalen-2-yl]-1H-Indazole]	96 % of control	5 % of control	14 % of control	72 % of control	45 % of control	71 % of control	5 % of control
CC(C)(C)Cc1nc(-c2ccc3[nH]nc(-c4ccc5cc(OCc6ccccn6)ccc5c4)c3c2)n[nH]1 [CC004, 5-[5-(2,2-Dimethyl-propyl)-1H-[1,2,4]triazol-3-yl]-3-[6-(pyridine-2-ylmethoxy)-naphthalen-2-yl]-1H-indazole]	85 % of control	57 % of control	47 % of control	108 % of control	76 % of control	77 % of control	34 % of control

The remaining lines, values ahead:

Inhibitory activity (% of control), c-RAF(h) (c-RAF(h))	Inhibitory activity (% of control), Lck(h) (Lck(h))	Inhibitory activity (% of control), Syk(h) (Syk(h))	Inhibitory activity (% of control), MAPKAP-K2(h) (MAPKAP-K2(h))	Inhibitory activity (% of control), MSK1(h) (MSK1(h))	Inhibitory activity (% of control), PDGFRα(h) (PDGFRα(h))	Inhibitory activity (% of control), Rsk2(h) (Rsk2(h))	SMILES
100 % of control	6 % of control	15 % of control	56 % of control	25 % of control	28 % of control	3 % of control	CCN1CCC[C@H]1COc1ccc2cc(-c3n[nH]c4ccc(-c5nc(CC(C)(C)C)n[nH]5)cc34)ccc2c1 [CC005, 2-[((2s)-1-ethylpyrrolidin-2-yl)methoxy]-6-{5-[3-(2,2-Dimethylpropyl)(1H-1,2,4,-triazol-5-yl)](1H-indazol-3-yl)}naphthalene]
99 % of control	43 % of control	46 % of control	96 % of control	72 % of control	86 % of control	31 % of control	Fc1ccc(-c2n[nH]c3ccc(-c4n[nH]c(C5CCCC5)n4)cc23)cc1 [CC006, 5-(5-Cyclopentyl-1H-[1,2,4]triazol-3-yl)-3-(4-fluoro-phenyl)-1H-indazole, reference compound]
92 % of control	56 % of control	51 % of control	86 % of control	89 % of control	108 % of control	45 % of control	O=C(NC1CCCC1)c1cccc(-c2n[nH]c3ccc(-c4nc[nH]n4)cc23)c1 [CC007, 3-(5-(1H-1,2,4-triazol-3-yl)(1H-indazol-3-yl))phenyl-N-cyclopentylcarboxamide, reference compound]
